Holding throughout (test): growth of human tumour cells (NCI), 48 h
Assay [1] has as its system OVCAR-8.
For assay [2], the system named is SK-MEL-28.
Assay [3] has as its system OVCAR-5.
For assay [4], the system named is MDA-N.
Assay [5] concerns EKVX.
Assay [6] relates to NCI-H460.
Assay [7] concerns RXF 393.
Assay [8] relates to ACHN.
Assay [9] deals with MDA-MB-435.
For assay [10], the system named is SK-MEL-2.
Assay [11] relates to HL-60.
The subject of assay [12] is NCI-H226.
In assay [13] the test system is HCT-116.
Assay [14] has as its system SW-620.
Assay [15] relates to NCI/ADR-RES.
The test system of assay [16] is HCC 2998.
In assay [17] the test system is SK-OV-3.
Assay [18] deals with UACC-257.
Assay [19] has as its system COLO 205.

Structures are written as SMILES.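 Step 1: Grow cells in 96-well plates. Step 2: Expose to compound for 48 hours at 5 concentrations. Step 3: Interpolate endpoints linearly; if unreached, use highest concentration. The concentration for 50% growth inhibition is given as GI50.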 Calls of active or inactive are those of the source. No stated cut-off is given here; in the data, active = GI50 up to about 1.1 µM and inactive = higher. Some results are limits rather than exact numbers.

`COc1ccc(/C=C2\N/C(=N\N=C/C(O)C(O)C(O)C(O)CO)NC2=O)cc1` (stereo not given): the GI50 was 32.4 µM (inactive) in assay [1]; 44 µM (inactive) in assay [2]; > 100 µM (inactive) in [3]; 20.1 µM (inactive) in [4]; > 100 µM (inactive) in [5]; 42.7 µM (inactive) in assay [6]. The GI50 in [7] is 56.5 µM (inactive); in assay [8], 32.2 µM (inactive); in assay [9], 26.2 µM (inactive); in assay [10], 17.8 µM (inactive); in assay [11], > 100 µM (inactive); in [12], 39.3 µM (inactive). Further, the GI50 in assay [13] was 53.6 µM (inactive); in assay [14], 76 µM (inactive); in assay [15], > 100 µM (inactive); in assay [16], 11.6 µM (inactive); in [17], 24.9 µM (inactive); in [18] it was 30.1 µM (inactive). Besides, the GI50 in assay [19] is 44.6 µM (inactive).

In the case of `CC1=CC[C@H](C(C)C)C(C(O)[C@@H](C)O[Si](c2ccccc2)(c2ccccc2)C(C)(C)C)C1=O` (stereo not given in full), the GI50 in assay [1] was 22.8 µM (inactive); in assay [2], 32.3 µM (inactive); in assay [3], 18.9 µM (inactive); in assay [4] it was 21.2 µM (inactive); in assay [5] it was 13.3 µM (inactive); in assay [6], 14.8 µM (inactive). Besides, the GI50 in [7] was 13.5 µM (inactive); in assay [8], 15.6 µM (inactive); in assay [9], 21.4 µM (inactive); in assay [10], 15.1 µM (inactive); in assay [11], 16.9 µM (inactive); in assay [12] it was 20 µM (inactive). For the same molecule, the GI50 in assay [13] was 10.6 µM (inactive); in [14], 18.9 µM (inactive); in [15] it was 16.7 µM (inactive); in assay [16], 12.7 µM (inactive); in [17] it was 28.5 µM (inactive); in assay [18], 12.1 µM (inactive). The GI50 in assay [19] is 17.2 µM (inactive).

For the molecule `Clc1ccc(C2NN=C3c4ccccc4OCC32)cc1` (stereo not given), the GI50 in [1] is 3.94 µM (inactive); in assay [2], 15.3 µM (inactive); in [3] it was 8.87 µM (inactive); in assay [4] it was 0.83 µM (active); in assay [5], 3.59 µM (inactive); in assay [6] it was 4.3 µM (inactive). In addition, the GI50 was 3.46 µM (inactive) in assay [7]; 14.9 µM (inactive) in assay [8]; 2.38 µM (inactive) in [9]; 3.48 µM (inactive) in assay [10]; 3.15 µM (inactive) in assay [11]; 2.92 µM (inactive) in [12]. Besides, the GI50 in assay [13] is 2.81 µM (inactive); in assay [14], 3.64 µM (inactive); in assay [15], 2.35 µM (inactive); in assay [16], 2.62 µM (inactive); in [17], 5.82 µM (inactive); in assay [18] it was 9.46 µM (inactive). In addition, the GI50 in assay [19] was 2.96 µM (inactive).

`O=C(c1c(F)c(F)c(F)c(F)c1F)c1c(F)c(F)c(F)c(F)c1F`: the GI50 was 1.5 µM (inactive) in [1]; 2.88 µM (inactive) in assay [2]; 1.9 µM (inactive) in [3]; 1.43 µM (inactive) in assay [4]; 1.96 µM (inactive) in assay [5]; 2.25 µM (inactive) in assay [6]. The GI50 was 1.55 µM (inactive) in assay [7]; 1.7 µM (inactive) in [8]; 1.56 µM (inactive) in assay [9]; 2.24 µM (inactive) in assay [10]; 0.48 µM (active) in assay [11]; 3.51 µM (inactive) in [12]. The GI50 in assay [13] was 1.51 µM (inactive); in assay [14], 1.06 µM (active); in assay [15], 3.13 µM (inactive); in [16] it was 1.67 µM (inactive); in assay [17], 2.39 µM (inactive); in assay [18], 1.84 µM (inactive). In [19], the GI50 is 1.45 µM (inactive).

As to `O=C1CSC(c2cc3cc(Br)ccc3nc2Cl)N1c1ccc(Cl)cc1` (stereo not given), the GI50 in [1] was 44.1 µM (inactive); in [2] it was 33.7 µM (inactive); in assay [3], 94.8 µM (inactive); in assay [4], 27.4 µM (inactive); in assay [5], 27.2 µM (inactive); in [6], 16.1 µM (inactive). The GI50 is 20.8 µM (inactive) in assay [7]; 13.5 µM (inactive) in assay [8]; 16.8 µM (inactive) in assay [9]; 14.7 µM (inactive) in assay [10]; 20.7 µM (inactive) in [11]; 39.2 µM (inactive) in assay [12]. Further, the GI50 in [13] is 23.6 µM (inactive); in [14], 34.3 µM (inactive); in [15] it was 20.5 µM (inactive); in [16], 19.2 µM (inactive); in assay [17], 43.3 µM (inactive); in [18], 14.8 µM (inactive). In [19], the GI50 is 17.9 µM (inactive).

Take `COc1ccc(/C=C2/S/C(=N\c3ccccc3)N(NC(=O)Cc3ccccc3)C2=O)cc1`: the GI50 in assay [1], in [2], in [3], in assay [4], in [5] and in assay [6] was > 100 µM (inactive) in each case. The GI50 in [7], in [8], in assay [9], in assay [10], in [11] and in [12] was > 100 µM (inactive) in each case. Moreover, the GI50 in [13], in [14], in assay [15], in [16], in [17] and in assay [18] was > 100 µM (inactive) each time. In addition, the GI50 in assay [19] was > 100 µM (inactive).

On to `O=C1C=CC2(O[C@H](C3CCCCC3)[C@@H](C3CCCCC3)O2)C(SC(=O)c2ccccc2)C1` (stereo not given in full), for which the GI50 in assay [1] was 1.73 µM (inactive); in [2], 0.347 µM (active); in [3] it was 1.88 µM (inactive); in [4] it was 1.78 µM (inactive); in assay [5], 6.1 µM (inactive); in assay [6], 7.8 µM (inactive). The GI50 in assay [7] is 1.01 µM (active); in assay [8], 1.94 µM (inactive); in [9], 1.62 µM (inactive); in assay [10] it was 4.21 µM (inactive); in assay [11], 1.79 µM (inactive); in [12] it was 0.82 µM (active). Besides, the GI50 in assay [13] is 0.918 µM (active); in assay [14] it was 1.91 µM (inactive); in assay [15] it was 1.43 µM (inactive); in [16] it was 1.25 µM (inactive); in [17], 12.9 µM (inactive); in [18], 7.05 µM (inactive). Besides, in assay [19], the GI50 is 5.87 µM (inactive).

For `O=C(O)C1CC(c2ccccc2)=NN1c1ccccc1` (stereo not given), the GI50 in assay [1] was > 100 µM (inactive); in [2], > 100 µM (inactive); in [3], > 100 µM (inactive); in assay [4], 99.5 µM (inactive); in [5], 24 µM (inactive); in assay [6] it was 54.7 µM (inactive). Moreover, the GI50 in assay [7] was 87.1 µM (inactive); in [8], 91.6 µM (inactive); in assay [9], 63.4 µM (inactive); in assay [10], 69.5 µM (inactive); in [11], 89.7 µM (inactive); in assay [12], 36.8 µM (inactive). Besides, the GI50 is 66.7 µM (inactive) in assay [13]; 92.3 µM (inactive) in [14]; 48.5 µM (inactive) in [15]; 24.1 µM (inactive) in [16]; > 100 µM (inactive) in assay [17]; 51.9 µM (inactive) in assay [18]. Besides, the GI50 in assay [19] is 50.9 µM (inactive).

Take `Cc1c(S(=O)(=O)O)ccc(/N=N/c2c(O)c(C(=O)O)cc3ccccc23)c1Cl`: the GI50 in assay [1], in assay [2], in [3], in assay [4], in [5] and in [6] was > 100 µM (inactive) each time. For the same molecule, the GI50 in [7], in assay [8], in assay [9], in assay [10], in [11] and in assay [12] was > 100 µM (inactive) each time. The GI50 in [13], in assay [14], in [15], in [16], in assay [17] and in assay [18] was > 100 µM (inactive) each time. The GI50 in assay [19] is > 100 µM (inactive).

Turning to `COc1ccc(-c2oc3c(OC)c(OC)c(OC)c(O)c3c(=O)c2OC)cc1OC`, the GI50 in [1] is 25.4 µM (inactive); in assay [2] it was 32.2 µM (inactive); in assay [3] it was 35.6 µM (inactive); in [4] it was 10.3 µM (inactive); in [5], 37.6 µM (inactive); in assay [6] it was 17.8 µM (inactive). The GI50 in assay [7] was 17.4 µM (inactive); in assay [8] it was 25 µM (inactive); in assay [9] it was 4.69 µM (inactive); in assay [10], 15.1 µM (inactive); in assay [11], 6.81 µM (inactive); in assay [12] it was 20.7 µM (inactive). In addition, the GI50 in assay [13] is 24.9 µM (inactive); in assay [14], 20.8 µM (inactive); in assay [15], 13.3 µM (inactive); in assay [16], 19.3 µM (inactive); in assay [17] it was 8.2 µM (inactive); in assay [18] it was 32.1 µM (inactive). Further, in assay [19], the GI50 is 25.8 µM (inactive).
